According to US20260217708A1, “FUSED BENZAZEPINE DERIVATIVES FOR USE IN THE TREATMENT OF CANCER AND EPILEPSY” (UCB BIOPHARMA SRL, priority 2023, published 2026):

Assays:
system Xc^− [1] = biological target: T1, system Xc^− (Homo sapiens, UniProt Q9UPY5); experiment: [^14C]L-Cystine uptake assay; type: cell-based; design: endogenous in cells; host or cells: H4 cells; conditions: H4 cells, sodium-free HEPES buffer, 0.5 μM L-[14C]Cystine and 4.5 μM L-Cystine, 1 hour at 37° C.; read-out: pIC50 [^14C] L-Cystine uptake assay (converted)
T1 sequence (Q9UPY5 1-501): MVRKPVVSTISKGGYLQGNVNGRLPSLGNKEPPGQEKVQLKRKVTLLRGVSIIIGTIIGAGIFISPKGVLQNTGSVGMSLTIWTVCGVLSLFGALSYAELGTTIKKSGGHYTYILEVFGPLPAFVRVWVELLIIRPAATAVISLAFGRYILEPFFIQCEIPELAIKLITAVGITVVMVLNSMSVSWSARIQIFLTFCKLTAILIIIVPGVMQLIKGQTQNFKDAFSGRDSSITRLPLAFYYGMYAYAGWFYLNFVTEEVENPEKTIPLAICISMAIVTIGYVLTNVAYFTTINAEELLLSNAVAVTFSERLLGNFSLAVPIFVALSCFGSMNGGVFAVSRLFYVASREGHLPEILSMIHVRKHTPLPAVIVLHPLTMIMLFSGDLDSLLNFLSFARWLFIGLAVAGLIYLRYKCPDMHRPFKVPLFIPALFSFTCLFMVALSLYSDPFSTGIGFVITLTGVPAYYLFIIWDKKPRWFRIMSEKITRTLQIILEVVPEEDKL
T1 sequence (P08195 1-529 partner): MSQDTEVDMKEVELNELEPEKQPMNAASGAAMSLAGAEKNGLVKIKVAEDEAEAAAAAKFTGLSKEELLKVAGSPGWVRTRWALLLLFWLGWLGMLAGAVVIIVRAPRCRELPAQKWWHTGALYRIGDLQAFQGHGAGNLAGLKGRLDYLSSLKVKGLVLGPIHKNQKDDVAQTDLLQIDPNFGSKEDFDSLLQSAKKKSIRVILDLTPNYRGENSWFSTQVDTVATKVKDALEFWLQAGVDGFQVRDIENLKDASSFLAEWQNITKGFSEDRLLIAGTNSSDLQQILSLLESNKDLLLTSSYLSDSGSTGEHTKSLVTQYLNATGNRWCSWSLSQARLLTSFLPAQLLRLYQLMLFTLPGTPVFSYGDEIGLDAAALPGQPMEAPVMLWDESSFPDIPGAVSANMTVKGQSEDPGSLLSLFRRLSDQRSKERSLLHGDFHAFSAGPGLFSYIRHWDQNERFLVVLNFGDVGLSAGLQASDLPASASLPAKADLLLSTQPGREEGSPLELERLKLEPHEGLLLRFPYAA
In short: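 Compound effect is given as pIC50, taken between controls of 1% DMSO and 50 μM Erastin. Human H4 cells were pretreated 15 min with compound in sodium-free buffer, then took up 0.5 μM [14C]cystine with 4.5 μM cold cystine for 1 hour at 37° C, read by scintillation proximity counting.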

system Xc^− [2] = biological target: T1, system Xc^−; experiment: Cystine-induced glutamate release assay; type: cell-based; design: endogenous in cells; host or cells: H4 cells; conditions: H4 cells, sodium-free HEPES buffer, 50 μM L-Cystine, 2 hours, Amplex Red glutamate readout; read-out: pIC50 Cystine-induced glutamate release assay (converted)
In short: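 IC50 (reported as pIC50) normalized to DMSO 1% and Erastin 50 μM controls, from Amplex Red fluorescence of glutamate exported into supernatant. H4 cells were washed into sodium-free buffer to exclude EAAT transport, then given compound with 50 μM L-cystine for 2 h in the incubator.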

IC50 (system Xc^− [1]) [nM]	IC50 (system Xc^− [2]) [nM]	SMILES
15.8 to 39.8	15.8 to 39.8	Cc1cc2c(c(F)n1)-c1ncc(F)cc1C(C)C(=O)N2CC(=O)Nc1ccc(C(F)F)cc1 (single isomer, unassigned) [#304, 2-[5,15-difluoro-8,13-dimethyl-9-oxo-3,10,14-triazatricyclo[9.4.0.0^2,7]pentadeca-1(15),2,4,6,11,13-hexaen-10-yl]-N-[4-(difluoromethyl)phenyl]acetamide]
15.8 to 39.8	< 15.8	CC1C(=O)N(CC(=O)Nc2ccc(C(F)F)cc2)c2cc(C#N)ccc2-c2cc(F)cnc21 (single isomer, unassigned) [#308, 2-[9-cyano-2-fluoro-5-methyl-6-oxo-5H-pyrido[2,3-d][1]benzazepin-7-yl]-N-[4-(difluoromethyl)phenyl]acetamide]
39.8 to 100	< 15.8	CC1C(=O)N(CC(=O)Nc2ccc(C(F)F)cc2)c2cc(C#N)ccc2-c2cccnc21 (single isomer, unassigned) [#312, 2-[9-cyano-5-methyl-6-oxo-5H-pyrido[2,3-d][1]benzazepin-7-yl]-N-[4-(difluoromethyl)phenyl]acetamide]
15.8 to 39.8	< 15.8	CC1C(=O)N(CC(=O)Nc2ccc(C(F)F)cc2)c2cc(Cl)cc(F)c2-c2cncnc21 (single isomer, unassigned) [#313, 2-[9-chloro-11-fluoro-5-methyl-6-oxo-5H-pyrimido[4,5-d][1]benzazepin-7-yl]-N-[4-(difluoromethyl)phenyl]acetamide]
< 15.8	< 15.8	COc1cc(F)c2c(c1)N(CC(=O)Nc1ccc(C(F)F)cc1)C(=O)C(C)c1ncccc1-2 (single isomer, unassigned) [#315, N-[4-(difluoromethyl)phenyl]-2-[11-fluoro-9-methoxy-5-methyl-6-oxo-5H-pyrido[2,3-d][1]benzazepin-7-yl]acetamide]
39.8 to 100	15.8 to 39.8	COc1cc2c(cn1)-c1cccnc1C(C)C(=O)N2CC(=O)Nc1ccc(C(F)F)cc1 (single isomer, unassigned) [#319, N-[4-(difluoromethyl)phenyl]-2-[5-methoxy-10-methyl-9-oxo-4,8,12-triazatricyclo[9.4.0.0^2,7]pentadeca-1(15),2(7),3,5,11,13-hexaen-8-yl]acetamide]
< 15.8	< 15.8	Cc1cc2c(cn1)-c1ccc(F)cc1C(C)C(=O)N2CC(=O)Nc1ccc(C(F)F)cc1 (single isomer, unassigned) [#323, N-[4-(difluoromethyl)phenyl]-2-[9-fluoro-3,7-dimethyl-6-oxo-7H-pyrido[3,4-a][3]benzazepin-5-yl]acetamide]
< 15.8	< 15.8	Cc1cc2c(cn1)-c1ccc(F)cc1C(C)C(=O)N2CC(=O)Nc1ccc(Cl)c(F)c1 (single isomer, unassigned) [#324, N-(4-chloro-3-fluoro-phenyl)-2-[9-fluoro-3,7-dimethyl-6-oxo-7H-pyrido[3,4-a][3]benzazepin-5-yl]acetamide]
< 15.8	15.8 to 39.8	CC1C(=O)N(CC(=O)Nc2ccc(C(F)F)cc2)c2cc(C3(F)CC3)ncc2-c2cc(F)cnc21 (single isomer, unassigned) [#325, N-[4-(difluoromethyl)phenyl]-2-[14-fluoro-5-(1-fluorocyclopropyl)-10-methyl-9-oxo-4,8,12-triazatricyclo[9.4.0.0^2,7]pentadeca-1(11),2,4,6,12,14-hexaen-8-yl]acetamide]

Second part, the compound before the results:

SMILES	IC50 (system Xc^− [1]) [nM]	IC50 (system Xc^− [2]) [nM]
Cc1cc2c(c(F)n1)-c1ncc(F)cc1C(C)C(=O)N2CC(=O)Nc1ccc(Cl)c(F)c1 (single isomer, unassigned) [#303, N-(4-chloro-3-fluoro-phenyl)-2-[5,15-difluoro-8,13-dimethyl-9-oxo-3,10,14-triazatricyclo[9.4.0.0^2,7]pentadeca-1(15),2,4,6,11,13-hexaen-10-yl]acetamide]	15.8 to 39.8	< 15.8
CC1C(=O)N(CC(=O)Nc2ccc(Cl)c(F)c2)c2cc(C#N)ccc2-c2cc(F)cnc21 (single isomer, unassigned) [#307, N-(4-chloro-3-fluoro-phenyl)-2-[9-cyano-2-fluoro-5-methyl-6-oxo-5H-pyrido[2,3-d][1]benzazepin-7-yl]acetamid]	15.8 to 39.8	< 15.8
CC1C(=O)N(CC(=O)Nc2ccc(C(F)F)cc2)c2cc(C#N)cc(F)c2-c2cccnc21 (single isomer, unassigned) [#309, 2-[9-cyano-11-fluoro-5-methyl-6-oxo-5H-pyrido[2,3-d][1]benzazepin-7-yl]-N-[4-(difluoromethyl)phenyl]acetamide]	15.8 to 39.8	15.8 to 39.8
CC1C(=O)N(CC(=O)Nc2ccc(Cl)c(F)c2)c2cc(C#N)cc(F)c2-c2cccnc21 (single isomer, unassigned) [#310, N-(4-chloro-3-fluoro-phenyl)-2-[9-cyano-11-fluoro-5-methyl-6-oxo-5H-pyrido[2,3-d][1]benzazepin-7-yl]acetamide]	< 15.8	< 15.8
CC1C(=O)N(CC(=O)Nc2ccc(Cl)c(F)c2)c2cc(Cl)cc(F)c2-c2cncnc21 (single isomer, unassigned) [#314, 2-[9-chloro-11-fluoro-5-methyl-6-oxo-5H-pyrimido[4,5-d][1]benzazepin-7-yl]-N-(4-chloro-3-fluoro-phenyl)acetamide]	< 15.8	15.8 to 39.8
COc1cc(F)c2c(c1)N(CC(=O)Nc1ccc(Cl)c(F)c1)C(=O)C(C)c1ncccc1-2 (single isomer, unassigned) [#316, N-(4-chloro-3-fluoro-phenyl)-2-[11-fluoro-9-methoxy-5-methyl-6-oxo-5H-pyrido[2,3-d][1]benzazepin-7-yl]acetamide]	15.8 to 39.8	15.8 to 39.8
O=C(CN1C(=O)C(O)c2ncc(F)cc2-c2c(F)cc(F)cc21)Nc1ccc(Cl)c(F)c1 (single isomer, unassigned) [#317, N-(4-chloro-3-fluoro-phenyl)-2-[2,9,11-trifluoro-5-hydroxy-6-oxo-5H-pyrido[2,3-d][1]benzazepin-7-yl]acetamide]	15.8 to 39.8	< 15.8
COc1cc2c(cn1)-c1cccnc1C(C)C(=O)N2CC(=O)Nc1ccc(Cl)c(F)c1 (single isomer, unassigned) [#320, N-(4-chloro-3-fluoro-phenyl)-2-[5-methoxy-10-methyl-9-oxo-4,8,12-triazatricyclo[9.4.0.0^2,7]pentadeca-1(15),2(7),3,5,11,13-hexaen-8-yl]acetamide]	15.8 to 39.8	15.8 to 39.8
CC1C(=O)N(CC(=O)Nc2ccc(Cl)c(F)c2)c2cc(C3(F)CC3)ncc2-c2cc(F)cnc21 (single isomer, unassigned) [#326, N-(4-chloro-3-fluoro-phenyl)-2-[14-fluoro-5-(1-fluorocyclopropyl)-10-methyl-9-oxo-4,8,12-triazatricyclo[9.4.0.0^2,7]pentadeca-1(15),2,4,6,11,13-hexaen-8-yl]acetamide]	< 15.8	< 15.8
Cc1cc2c(cn1)-c1cc(F)cnc1C(C)C(=O)N2CC(=O)Nc1ccc(Cl)c(F)c1 (single isomer, unassigned) [#327, N-(4-chloro-3-fluoro-phenyl)-2-[14-fluoro-5,10-dimethyl-9-oxo-4,8,12-triazatricyclo[9.4.0.0^2,7]pentadeca-1(15),2,4,6,11,13-hexaen-8-yl]acetamide]	< 15.8	< 15.8
